pIC50: −log10 of the molar value.
biological target: PARP7 (Homo sapiens (Human), UniProt Q7Z3E1); assay: Enzymatic assay for inhibition of PARP7: TR-FRET displacement of biotinylated Probe A from the TIPARP active site; format: binding; details: Table A-1
Method in brief: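 TR-FRET, ex 320 nm / em 615 and 665 nm. Signal ratio reflects complex formation.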

Sequence of PARP7 (Q7Z3E1 whole entry): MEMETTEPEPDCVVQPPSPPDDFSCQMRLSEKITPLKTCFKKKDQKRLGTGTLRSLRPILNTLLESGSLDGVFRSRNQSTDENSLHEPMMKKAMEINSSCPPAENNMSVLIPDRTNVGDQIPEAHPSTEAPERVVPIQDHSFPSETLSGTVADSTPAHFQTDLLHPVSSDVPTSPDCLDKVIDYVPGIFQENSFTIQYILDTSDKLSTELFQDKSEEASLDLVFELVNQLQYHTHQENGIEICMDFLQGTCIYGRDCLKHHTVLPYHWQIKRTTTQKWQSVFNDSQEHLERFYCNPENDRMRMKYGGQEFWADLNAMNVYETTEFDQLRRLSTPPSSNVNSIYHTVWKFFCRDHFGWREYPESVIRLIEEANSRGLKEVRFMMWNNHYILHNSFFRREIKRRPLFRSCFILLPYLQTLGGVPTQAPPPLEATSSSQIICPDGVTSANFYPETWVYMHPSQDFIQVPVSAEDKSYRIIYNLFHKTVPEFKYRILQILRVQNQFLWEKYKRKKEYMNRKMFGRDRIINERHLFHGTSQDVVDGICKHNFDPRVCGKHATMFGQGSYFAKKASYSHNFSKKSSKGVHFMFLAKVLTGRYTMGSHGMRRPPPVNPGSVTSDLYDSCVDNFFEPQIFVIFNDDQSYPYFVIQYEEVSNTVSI

Row | Structure (SMILES) | pIC50
1 | CN1CCN(c2cccc3c2CN(c2cn[nH]c(=O)c2C(F)(F)F)C3)CC1 [Example 314, 5-(4-(4-Methylpiperazin-1-yl)isoindolin-2-yl)-4-(trifluoromethyl)pyridazin-3(2H)-one] | 6.00 to 7.00
2 | C[C@@H](COCCC(=O)N1CCCN(c2ncc(C(F)(F)F)cn2)CC1)Nc1cn[nH]c(=O)c1C(F)(F)F [Example 669, (S)-5-((1-(3-Oxo-3-(4-(5-(trifluoromethyl)pyrimidin-2-yl)-1,4-diazepan-1-yl)propoxy)propan-2-yl)amino)-4-(trifluoromethyl)pyridazin-3(2H)-one] | > 7.00
3 | N#Cc1ccc(N2C[C@@H]3C[C@H]2CN3C(=O)CCOC[C@@H]2CCCN2c2cn[nH]c(=O)c2C(F)(F)F)nc1 [Example 112A, 6-[(1S,4S)-5-(3-(((S)-1-(6-oxo-5-(trifluoromethyl)-1,6-dihydropyridazin-4-yl)pyrrolidin-2-yl)methoxy)propanoyl)-2,5-diaza-bicyclo[2.2.1]heptan-2-yl)nicotinonitrile] | 6.00 to 7.00
4 | O=C(C[C@@H]1CC[C@@H]([C@@H]2CCCN2c2cn[nH]c(=O)c2C(F)(F)F)O1)N1CCN(c2ccc(Cl)cn2)CC1 [Example 148A, 5-[(2S)-2-[(2S,5S)-5-[2-[4-(5-chloropyridin-2-yl)piperazin-1-yl]-2-oxoethyl]oxolan-2-yl]pyrrolidin-1-yl]-4-(trifluoromethyl)-2,3-dihydropyridazin-3-one] | > 7.00
5 | O=C(COC[C@@H]1CCCN1c1cn[nH]c(=O)c1C(F)(F)F)N1CCN(c2ccccn2)CC1 [Example 448, (S)-5-(2-((2-Oxo-2-(4-(pyridin-2-yl)piperazin-1-yl)ethoxy)methyl)pyrrolidin-1-yl)-4-(trifluoromethyl)pyridazin-3(2H)-one] | 6.00 to 7.00
6 | O=c1[nH]ncc(N2Cc3cc(F)c(OC4CCCNC4)cc3C2)c1C(F)(F)F (stereo not drawn) [Example 58, 5-[5-fluoro-6-(piperidin-3-yloxy)-2,3-dihydro-1H-isoindol-2-yl]-4-(trifluoromethyl)-2,3-dihydropyridazin-3-one] | > 7.00
7 | N#Cc1ccc(N2CCN(C(=O)c3ccc(OCCOc4cccc5c4CN(c4cn[nH]c(=O)c4C(F)(F)F)C5)cc3)CC2)nc1 [Example 43, 6-[4-([4-[2-([2-[6-oxo-5-(trifluoromethyl)-1,6-dihydropyridazin-4-yl]-2,3-dihydro-1H-isoindol-4-yl]oxy)ethoxy]phenyl]carbonyl)piperazin-1-yl]pyridine-3-carbonitrile] | > 7.00
8 | C[C@@H](CSCCC(=O)N1CCN(c2ncc(C(F)(F)F)cn2)CC1)Oc1cn[nH]c(=O)c1C(F)(F)F [Example 621A, (S)-5-((1-((3-Oxo-3-(4-(5-(trifluoromethyl)pyrimidin-2-yl)piperazin-1-yl)propyl)thio)propan-2-yl)oxy)-4-(trifluoromethyl)pyridazin-3(2H)-one] | 6.00 to 7.00
9 | O=C(c1cncc(OC[C@H]2c3ccccc3CN2c2cn[nH]c(=O)c2C(F)(F)F)c1)N1CCN(c2ccc(F)cn2)CC1 [Example 387, (R)-5-(1-(((5-(4-(5-Fluoropyridin-2-yl)piperazine-1-carbonyl)pyridin-3-yl)oxy)methyl)isoindolin-2-yl)-4-(trifluoromethyl)pyridazin-3(2H)-one] | ≤ 6.00
10 | N#Cc1ccc(N2CCN(C(=O)c3ccc(OCC4CCN(c5cn[nH]c(=O)c5C(F)(F)F)C4)cc3)CC2)nc1 (stereo not drawn) [Example 477, 6-(4-(4-((1-(6-Oxo-5-(trifluoromethyl)-1,6-dihydropyridazin-4-yl)pyrrolidin-3-yl)methoxy)benzoyl)piperazin-1-yl)nicotinonitrile] | > 7.00
11 | O=C(CCOCCNc1cn[nH]c(=O)c1Cl)N1CCN(c2ncc(C(F)(F)F)cn2)CC1 [Example 508, 4-Chloro-5-[[2-(3-oxo-3-[4-[5-(trifluoromethyl)pyrimidin-2-yl]piperazin-1-yl]propoxy)ethyl]amino]-2,3-dihydropyridazin-3-one] | > 7.00
12 | COC[C@@H](COCCC(=O)N1CCN(c2ncc(C(F)(F)F)cn2)CC1)Nc1cn[nH]c(=O)c1Cl [Example 651, (S)-4-Chloro-5-((1-methoxy-3-(3-oxo-3-(4-(5-(trifluoromethyl)pyrimidin-2-yl)piperazin-1-yl)propoxy)propan-2-yl)amino)pyridazin-3(2H)-one] | > 7.00
13 | O=C(CCOCCOc1cn[nH]c(=O)c1C(F)(F)F)N1CCN(c2ccc(Cl)cn2)CC1 [Example 535, 5-(2-[3-[4-(5-Chloropyridin-2-yl)piperazin-1-yl]-3-oxopropoxy]ethoxy)-4-(trifluoromethyl)-2,3-dihydropyridazin-3-one] | > 7.00
14 | CC1CN(c2ccc(C#N)cn2)CCN1C(=O)CCOC[C@@H]1CCCN1c1cn[nH]c(=O)c1C(F)(F)F (stereo partly drawn) [Example 473, 6-(3 -Methyl-4-(3-(((S)-1-(6-oxo-5-(trifluoromethyl)-1,6-dihydropyridazin-4-yl)pyrrolidin-2-yl)methoxy)propanoyl)piperazin-1-yl)nicotinonitrile] | > 7.00
15 | CC(=O)N1CCC(Oc2ccc3c(n2)CN(c2cn[nH]c(=O)c2C(F)(F)F)C3)CC1 [Example 333, 5-(2-((1-Acetylpiperidin-4-yl)oxy)-5,7-dihydro-6H-pyrrolo[3,4-b]pyridin-6-yl)-4-(trifluoromethyl)pyridazin-3(2H)-one] | > 7.00
16 | N#Cc1ccc(N2CCN(C(=O)[C@H]3CC[C@@H](OC[C@@H]4CCCN4c4cn[nH]c(=O)c4C(F)(F)F)CC3)CC2)nc1 (single isomer, unassigned; isomer b) [Example 82 Isomer B] | 6.00 to 7.00
17 | O=C(C[C@@H]1CC[C@H]([C@@H]2CCCN2c2cn[nH]c(=O)c2C(F)(F)F)O1)N1CCN(c2ncc(Cl)cn2)CC1 (single isomer, unassigned) [Example 147C] | 6.00 to 7.00
18 | O=C(COC[C@@H]1CCCN1c1cn[nH]c(=O)c1C(F)(F)F)N[C@H]1CC[C@H](Nc2ccccn2)CC1 (single isomer, unassigned; isomer a) [Example 80 Isomer A] | 6.00 to 7.00
19 | C[C@@H](COCCC(=O)N1CC[C@@H]2[C@H]1CCN2c1ncc(C(F)(F)F)cn1)Nc1cn[nH]c(=O)c1C(F)(F)F [Example 688, 5-(((S)-1-(3-Oxo-3-((3aR,6aR)-4-(5-(trifluoromethyl)pyrimidin-2-yl)hexahydropyrrolo[3,2-b]pyrrol-1(2H)-yl)propoxy)propan-2-yl)amino)-4-(trifluoromethyl)pyridazin-3(2H)-one] | > 7.00
20 | O=c1[nH]ncc(N2Cc3ccc(O[C@@H]4CCCNC4)cc3C2)c1C(F)(F)F [Example 288, (R)-5-(5-(Piperidin-3-yloxy)isoindolin-2-yl)-4-(trifluoromethyl)pyridazin-3(2H)-one] | > 7.00
21 | N#CCC1c2ccccc2CN1c1cn[nH]c(=O)c1C(F)(F)F (stereo not drawn) [Example 330, 2-(2-(6-Oxo-5-(trifluoromethyl)-1,6-dihydropyridazin-4-yl)isoindolin-1-yl)acetonitrile] | ≤ 6.00
22 | N#Cc1ccc(N2CCN(C(=O)CCOC[C@H](CN3CCOCC3)Oc3cn[nH]c(=O)c3C(F)(F)F)CC2)nc1 [Example 663, (S)-6-(4-(3-(3-Morpholino-2-((6-oxo-5-(trifluoromethyl)-1,6-dihydropyridazin-4-yl)oxy)propoxy)propanoyl)piperazin-1-yl)nicotinonitrile] | > 7.00
23 | C[C@@H](COCCC(=O)N1CC[C@H]2[C@@H]1CCN2c1ncc(C(F)(F)F)cn1)Nc1cn[nH]c(=O)c1C(F)(F)F [Example 689, 5-(((S)-1-(3-Oxo-3-((3aS,6aS)-4-(5-(trifluoromethyl)pyrimidin-2-yl)hexahydropyrrolo[3,2-b]pyrrol-1(2H)-yl)propoxy)propan-2-yl)amino)-4-(trifluoromethyl)pyridazin-3(2H)-one] | 6.00 to 7.00
24 | CC1(C)C[C@@H](COCCC(=O)N2CCN(c3ccc(C#N)cn3)CC2)N(c2cn[nH]c(=O)c2C(F)(F)F)C1 [Example 484, (S)-6-(4-(3-((4,4-Dimethyl-1-(6-oxo-5-(trifluoromethyl)-1,6-dihydropyridazin-4-yl)pyrrolidin-2-yl)methoxy)propanoyl)piperazin-1-yl)nicotinonitrile] | > 7.00
25 | O=C(C[C@H]1CC[C@@H]([C@@H]2CCCN2c2cn[nH]c(=O)c2C(F)(F)F)O1)N1CCN(c2ncc(C(F)(F)F)cn2)CC1 [Example 149B, 5-[(2S)-2-[(2S,5R)-5-(2-oxo-2-[4-[5-(trifluoromethyl)pyrimidin-2-yl]piperazin-1-yl]ethyl)oxolan-2-yl]pyrrolidin-1-yl]-4-(trifluoromethyl)-2,3-dihydropyridazin-3-one] | > 7.00
26 | CN1CCC(Oc2ccc3c(n2)CN(c2cn[nH]c(=O)c2C(F)(F)F)C3)CC1 [Example 6, 5-[2-[(1-methylpiperidin-4-yl)oxy]-5H,6H,7H-pyrrolo[3,4-b]pyridin-6-yl]-4-(trifluoromethyl)-2,3-dihydropyridazin-3-one] | 6.00 to 7.00
27 | N#Cc1ccc(N2CCN(C(=O)CCOC[C@H]3c4ncccc4CN3c3cn[nH]c(=O)c3Cl)CC2)nc1 [Example 432, (R)-6-(4-(3-((6-(5-Chloro-6-oxo-1,6-dihydropyridazin-4-yl)-6,7-dihydro-5H-pyrrolo[3,4-b]pyridin-7-yl)methoxy)propanoyl)piperazin-1-yl)nicotinonitrile] | 6.00 to 7.00
28 | O=c1[nH]ncc(N2Cc3cc(F)c(OCC4CCCN4)cc3C2)c1C(F)(F)F (stereo not drawn) [Example 48, 5-[5-fluoro-6-(pyrrolidin-2-ylmethoxy)-2,3-dihydro-1H-isoindol-2-yl]-4-(trifluoromethyl)-2,3-dihydropyridazin-3-one] | > 7.00
29 | C[C@H](COC[C@@H]1CCCN1c1cn[nH]c(=O)c1C(F)(F)F)C(=O)N1CCN(c2ccc(C#N)cn2)CC1 (single isomer, unassigned) [Example 94 Isomer A] | > 7.00
30 | O=C(CCOC[C@@H](Nc1cn[nH]c(=O)c1C(F)(F)F)[C@H]1CCOC1)N1CCN(c2ncc(C(F)(F)F)cn2)CC1 (single isomer, unassigned; isomer c) [Example 614 Isomer C] | > 7.00

— patent US10550105B2 (Ribon Therapeutics Inc., priority 2018, dated 2020)
